“Also recorded” adds a separate entry of the source. One block for each compound: values may come before it.
Experiments:
[1] = target: T1, Nurr1 (Homo sapiens, UniProt P43354); conditions: Nurr1 agonism, literature values (refs. 24, 27, 28); cited from earlier work
Target sequence in this assay (P43354 whole entry): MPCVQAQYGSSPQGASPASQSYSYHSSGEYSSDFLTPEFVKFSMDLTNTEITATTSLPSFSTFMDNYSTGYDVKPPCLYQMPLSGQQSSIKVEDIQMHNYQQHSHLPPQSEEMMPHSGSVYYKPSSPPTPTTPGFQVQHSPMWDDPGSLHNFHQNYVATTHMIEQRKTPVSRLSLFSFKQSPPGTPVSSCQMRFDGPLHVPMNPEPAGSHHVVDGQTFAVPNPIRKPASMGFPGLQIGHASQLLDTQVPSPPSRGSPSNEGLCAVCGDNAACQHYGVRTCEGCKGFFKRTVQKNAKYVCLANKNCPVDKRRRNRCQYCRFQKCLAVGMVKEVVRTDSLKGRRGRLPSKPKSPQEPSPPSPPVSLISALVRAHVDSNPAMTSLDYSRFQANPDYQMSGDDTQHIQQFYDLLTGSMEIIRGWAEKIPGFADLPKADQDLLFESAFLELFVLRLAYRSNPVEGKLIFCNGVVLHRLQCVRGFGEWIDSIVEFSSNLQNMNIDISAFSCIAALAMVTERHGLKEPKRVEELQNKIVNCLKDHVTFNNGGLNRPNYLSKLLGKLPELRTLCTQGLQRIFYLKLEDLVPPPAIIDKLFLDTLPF

[2] = target: T1, Nurr1; assay: Ligand efficiency metrics; conditions: computed according to ref. 29
Target sequence in this assay (P43354 whole entry): as above

[3] = Compound stability (observation); type: physicochemical; conditions: printed in the EC50 column of Table 1
[4] = tested on: Nurr1-regulated tyrosine hydroxylase (TH), vesicular amino acid transporter 2 (VMAT2) and superoxide dismutase 2 (SOD2) in astrocytes (T98G); assay: Nurr1-regulated gene expression in T98G cells (qPCR); type: cell-based, human; conditions: 10 µM
[5] = target: T2, Nurr1-RXR heterodimer (DR5) (Homo sapiens, UniProt P43354); assay: Full-length Nurr1 reporter gene assay, response element DR5 with RXRα; type: cell-based; conditions: result in words, at 10 µM
T2 construct: The full length human nuclear receptor Nurr1 (pcDNA3.1-hNurr1-NE; Addgene plasmid #102363); NE (suffix in the plasmid name); host or cells: HEK293T
Source text: (§1) Full-length Nurr1 reporter gene assays. Activation of full length human Nurr1 was studied in transiently transfected HEK293T cells using the reporter plasmids pFR-Luc-NBRE^14, pFR-Luc-POMC^14 or pFR-Luc-DR5^14 each containing one copy of the respective human Nurr1 response element NBRE Nl3, NurRE, or DR5. The full length human nuclear receptor Nurr1 (pcDNA3.1-hNurr1-NE; Addgene plasmid #102363) and, for DR5, RXRα (pSG5-hRXR)^44 were overexpressed. pRL-SV40 (Promega) was used for normalization of transfection efficacy and to observe test compound toxicity. […] After 24 h, medium was changed to Opti-MEM without supplements and cells were transiently transfected using Lipofectamine LTX reagent (invitrogen) according to the manufacturer's protocol. Five hours after transfection, cells were incubated with the test compounds in Opti-MEM supplemented with penicillin (100 U/mL), streptomycin (100 µg/mL) and 0.1% DMSO for 16 h before luciferase activity was measured using the Dual-Glo Luciferase Assay System (Promega) according to the manufacturer's protocol on a Tecan Spark luminometer (Tecan Deutschland GmbH). Firefly luminescence was divided by Renilla luminescence and multiplied by 1000 resulting in relative light units (RLU) to normalize for transfection efficiency and cell growth. Fold activation was obtained by dividing the mean RLU of test compound by the mean RLU of the untreated control. All samples were tested in at least three biologically independent experiments in duplicates. For dose-response curve fitting and calculation of EC50 values, the equation "[Agonist] vs. response -- Variable slope (four parameters)" was used in GraphPad Prism (version 7.00, GraphPad Software).

[6] = target: T3, Nurr1 LBD (Homo sapiens, UniProt P43354); assay: Isothermal titration calorimetry (ITC); type: binding; conditions: result in words; ITC with 100 µM 29 and 30 µM protein
T3 construct: Nurr1 LBD protein (10-30 µM, expressed as described previously^21); made in house
Protocol: Isothermal Titration Calorimetry (ITC). ITC experiments were conducted on an Affinity ITC instrument (TA Instruments, New Castle, DE) at 25°C with a stirring rate of 75 rpm. Nurr1 LBD protein (10-30 µM, expressed as described previously^21) in buffer (20 mM Tris pH 7.5, 100 mM NaCl, 5% glycerol) containing 1-4% DMSO was titrated with the test compounds (60-150 µM in the same buffer containing 1-4% DMSO) in 26 injections (1x 1 µL, 25x 3-4 µL) with an injection interval of 150 s. As control experiments, the test compounds were titrated to the buffer, and the buffer was titrated to the Nurr1 LBD protein under otherwise identical conditions. Results were analyzed using NanoAnalyze software (version 3.11.0, TA Instruments, New Castle, DE) with independent binding models.

[7] = target: T1, Nurr1; assay: Gal4-Nurr1 hybrid reporter gene assay in HEK293T cells; type: cell-based; parameters: expressed in transfected cells; host or cells: HEK293T
Protocol: (§2) Hybrid reporter gene assays. Nurr1 modulation was determined in a Gal4 hybrid reporter gene assay in HEK293T cells (German Collection of Microorganisms and Cell Culture GmbH, DSMZ) using pFR-Luc (Stratagene, La Jolla, CA, USA; reporter), pRL-SV40 (Promega, Madison, WI, USA; internal control) and pFA-CMV-hNurr1-LBD^14, coding for the hinge region and ligand binding domain of the canonical isoform of human Nurr1. […] After 24 h, medium was changed to Opti-MEM without supplements and cells were transiently transfected using Lipofectamine LTX reagent (Invitrogen, Carlsbad, CA, USA) according to the manufacturer's protocol. Five hours after transfection, cells were incubated with the test compounds in Opti-MEM supplemented with penicillin (100 U/mL), streptomycin (100 µg/mL) and 0.1% DMSO for 16 h before luciferase activity was measured using the Dual-Glo Luciferase Assay System (Promega) according to the manufacturer's protocol on a Tecan Spark luminometer (Tecan Deutschland GmbH, Crailsheim, Germany). Firefly luminescence was divided by Renilla luminescence and multiplied by 1000 resulting in relative light units (RLU) to normalize for transfection efficiency and cell growth. Fold activation was obtained by dividing the mean RLU of test compound by the mean RLU of the untreated control. All samples were tested in at least three biologically independent experiments in duplicates. For dose-response curve fitting and calculation of EC50 values, the equation "[Agonist] vs. response -- Variable slope (four parameters)" was used in GraphPad Prism (version 7.00, GraphPad Software, La Jolla, CA, USA). Selectivity profiling was performed with identical procedures using pFA-CMV-Nur77-LBD^14, pFA-CMV-NOR-1-LBD^14, pFA-CMV-THRα-LBD^39, pFA-CMV-RARα-LBD^40, pFA-CMV-PPARα-LBD^41, pFA-CMV-PPARγ-LBD^41, pFA-CMV-PPARδ-LBD^41, pFA-CMV-LXRα-LBD^37, pFA-CMV-FXR-LBD^42 and pFA-CMV-hRXRα-LBD^43.
Target sequence in this assay (P43354 360-595 limits assumed): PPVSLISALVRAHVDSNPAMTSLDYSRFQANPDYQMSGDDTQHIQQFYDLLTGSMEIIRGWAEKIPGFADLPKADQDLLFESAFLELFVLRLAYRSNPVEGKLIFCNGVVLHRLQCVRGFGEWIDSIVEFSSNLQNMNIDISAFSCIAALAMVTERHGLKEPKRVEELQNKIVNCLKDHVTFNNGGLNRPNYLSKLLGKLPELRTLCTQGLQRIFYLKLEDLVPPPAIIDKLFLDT

[8] = target: T4, NOR-1 (Homo sapiens, UniProt Q92570); assay: Gal4 hybrid reporter gene assay, selectivity profiling (NOR-1); type: cell-based; conditions: result in words, at 10 µM
T4 construct: pFA-CMV-NOR-1-LBD; expressed in transfected cells; host or cells: HEK293T
T4 sequence (Q92570 394-623 limits assumed): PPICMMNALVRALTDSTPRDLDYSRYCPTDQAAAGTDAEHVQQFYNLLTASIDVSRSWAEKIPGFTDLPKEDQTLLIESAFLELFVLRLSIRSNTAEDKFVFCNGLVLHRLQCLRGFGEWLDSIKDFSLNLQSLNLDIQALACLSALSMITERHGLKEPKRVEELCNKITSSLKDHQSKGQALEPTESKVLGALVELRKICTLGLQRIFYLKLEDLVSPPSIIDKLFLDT

[9] = target: T5, Nurr1 monomer (NBRE) (Homo sapiens, UniProt P43354); assay: Full-length Nurr1 reporter gene assay, response element NBRE; type: cell-based; conditions: result in words, at 10 µM
T5 construct: The full length human nuclear receptor Nurr1 (pcDNA3.1-hNurr1-NE; Addgene plasmid #102363); NE (suffix in the plasmid name); host or cells: HEK293T
Source text: as §1, with “Fold activation was obtained by dividing the mean RLU of test compound by the mean RLU of the untreated control. All samples were tested in at least three biologically independent experiments in duplicates. For dose-response curve fitting and calculation of EC50 values, the equation "[Agonist] vs. response -- Variable slope (four parameters)" was used in GraphPad Prism (version 7.00, GraphPad Software).” left out

[10] = target: T6, Nur77 (Homo sapiens, UniProt P22736); assay: Gal4 hybrid reporter gene assay, selectivity profiling (Nur77); type: cell-based; conditions: result in words, at 10 µM
T6 construct: expressed in transfected cells; host or cells: HEK293T
Protocol: as §2, with “For dose-response curve fitting and calculation of EC50 values, the equation "[Agonist] vs. response -- Variable slope (four parameters)" was used in GraphPad Prism (version 7.00, GraphPad Software, La Jolla, CA, USA). Selectivity profiling was performed with identical procedures using pFA-CMV-Nur77-LBD^14, pFA-CMV-NOR-1-LBD^14, pFA-CMV-THRα-LBD^39, pFA-CMV-RARα-LBD^40, pFA-CMV-PPARα-LBD^41, pFA-CMV-PPARγ-LBD^41, pFA-CMV-PPARδ-LBD^41, pFA-CMV-LXRα-LBD^37, pFA-CMV-FXR-LBD^42 and pFA-CMV-hRXRα-LBD^43.” left out

[11] = target: T7, Nurr1 homodimer (NurRE) (Homo sapiens, UniProt P43354); assay: Full-length Nurr1 reporter gene assay, response element NurRE; type: cell-based; conditions: result in words, at 10 µM
T7 construct: The full length human nuclear receptor Nurr1 (pcDNA3.1-hNurr1-NE; Addgene plasmid #102363); host or cells: HEK293T
Source text: as §1, with “Fold activation was obtained by dividing the mean RLU of test compound by the mean RLU of the untreated control. All samples were tested in at least three biologically independent experiments in duplicates. For dose-response curve fitting and calculation of EC50 values, the equation "[Agonist] vs. response -- Variable slope (four parameters)" was used in GraphPad Prism (version 7.00, GraphPad Software).” left out

[12] = Determination of aqueous solubility; type: physicochemical; conditions: water, 24 h, 25°C
Protocol: Determination of aqueous solubility. […] The mixture was agitated in a VWR Thermal Shake lite (VWR International GmbH, Darmstadt, Germany) for 24 h at 600 rpm and constant temperature of 25°C. The supersaturated mixtures were subsequently centrifuged at 23.300 rpm for 15 min (25 °C). Part of the supernatant was taken off for quantification by UV absorbance at 312 nm with external calibration. The external calibration samples contained 1% DMSO and the test samples were spiked with DMSO to 1% concentration right before the measurement. Absorbance was measured with a Tecan Spark luminometer (Tecan Deutschland GmbH, Crailsheim, Germany). The solubility test was repeated in three independent experiments, […]

T3 sequence (P43354 360-595 limits assumed): as the sequence (P43354 360-595 limits assumed) above
T2 sequence (P43354 whole entry): as the sequence (P43354 whole entry) above
T2 sequence (P19793 whole entry partner): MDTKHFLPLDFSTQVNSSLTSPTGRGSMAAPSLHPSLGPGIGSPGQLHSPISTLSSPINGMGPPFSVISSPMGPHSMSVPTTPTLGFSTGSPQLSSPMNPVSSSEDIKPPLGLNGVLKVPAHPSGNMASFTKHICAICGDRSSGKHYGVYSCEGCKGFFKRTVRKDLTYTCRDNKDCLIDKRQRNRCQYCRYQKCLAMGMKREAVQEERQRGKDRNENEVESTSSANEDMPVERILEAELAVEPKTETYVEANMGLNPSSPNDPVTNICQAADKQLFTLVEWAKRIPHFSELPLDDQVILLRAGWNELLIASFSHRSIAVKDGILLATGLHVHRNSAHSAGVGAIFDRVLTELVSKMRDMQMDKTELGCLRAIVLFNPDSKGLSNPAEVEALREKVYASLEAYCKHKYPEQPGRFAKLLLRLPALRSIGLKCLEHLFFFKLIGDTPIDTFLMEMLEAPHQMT
T5 sequence (P43354 whole entry): as the sequence (P43354 whole entry) above
T7 sequence (P43354 whole entry): as above
T6 sequence (P22736 360-595 limits assumed): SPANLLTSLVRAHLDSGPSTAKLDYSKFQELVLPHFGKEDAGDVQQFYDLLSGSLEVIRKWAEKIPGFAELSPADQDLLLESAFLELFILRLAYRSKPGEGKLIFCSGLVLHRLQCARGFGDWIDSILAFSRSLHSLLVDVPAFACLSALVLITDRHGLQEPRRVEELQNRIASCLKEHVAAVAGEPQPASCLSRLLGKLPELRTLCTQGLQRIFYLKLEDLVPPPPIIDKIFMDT

- ligand efficiency (LE) [2]: 0.26
- size-independent ligand eff. (SILE) [2]: 1.79
Compound: CCN(CC)Cc1cc(Nc2ccnc3cc(Cl)ccc23)ccc1O [Compound 1, amodiaquine]
- EC50 [1]: ~20 µM

- stability [3]: not stable; also recorded: unstable
Compound: Cc1[nH]c2c(Cl)cccc2c1N [Compound 6, 7-chloro-2-methyl-1H-indol-3-amine]

- EC50(DR5) [+0.1 µM BEX] [5]: no activation (10 µM)
- less active than 36 as Nurr1 modulator [7]: more than 100 fold
- EC50(NBRE) [9]: no activation (10 µM)
- EC50(NurRE) [11]: no activation (10 µM)
- aq. solubility [12]: 4.1 µg/mL
Compound: Cc1nc2c(Cl)cccn2c1NC(=O)c1ccc(-c2ccccc2)[nH]1 [Compound 29]
- induction of Nurr1-regulated gene expression [4]: no effect; also recorded: no induction
- Kd(Nurr1 LBD) [6]: no detectable binding; also recorded: no binding ^b
- EC50(Nurr1) (max. activation) ([7]; result in words, at 10 µM): no Nurr1 agonism; also recorded: inactive (10 µM); also recorded: no activation (10 µM)
- EC50(NOR-1) [8]: no effect; also recorded: no activation (10 µM)
- EC50(Nur77) [10]: no effect; also recorded: no activation (10 µM)
